Consider one compound from patent US8802705B2, “Pharmaceutical containing PPAR delta agonist” (Senju Pharmaceutical Co., Ltd., priority 2007, dated 2014).

For this assay, the system named is monkey meibomian gland epithelial cells. Description: Effect on cell number increase in meibomian gland epithelial cells (Experimental Example 3, Cell Counting Kit-8). Type of assay: cell-based. The note with it: medium renewed every 48 hr (3 x 48 hr), relative to non-addition group = 100%, mean ± SD, N = 5 or 10. From the text: An eyelid of monkey isolated and stored in D-PBS was transferred to a clean bench, and cell preparation was aseptically performed as follows.
The isolated eyelid was immersed in 80% ethanol for 30 sec, washed three times with D-PBS added with 1% penicillin-streptomycin (Invitrogen), and transferred to a minimum essential medium (MEM; Invitrogen). The adipose tissue and muscular tissue surrounding the meibomian glandular tissue of the eyelid were removed under a stereomicroscope. They were transferred to MEM containing 0.3 U/mL collagenase A (Roche Diagnostics) and 2.4 U/mL dispase II (Roche Diagnostics), and shaken at 37° C. for 4 hr and at 4° C. overnight. The enzyme-treated tissue was set under a stereomicroscope, and the eyelash and eyelid connective tissue were removed to isolate the meibomian glandular tissue. Trypsin-EDTA (4 mL, Invitrogen) was added to the isolated glandular tissue, and the mixture was incubated at 37° C. for 10 min. After incubation, MEM (5 mL) containing 10% FBS (Invitrogen) was added thereto to stop the enzyme reaction, and the tissue constituting cells were dispersed by repeated suction and discharge of the mixture 5 times using an injection syringe equipped with a 21 G injection needle. The cell dispersion was passed through 100 μm and 40 μm nylon filters (Cell Strainer; Falcon), and cell mass and the like contained therein which could not be treated with the enzyme were removed. The cell suspension passed through the filters was collected in a centrifuge tube (50 mL) and centrifuged at room temperature, 1,500 rpm for 5 min. To the cell layers containing the object cells obtained by the centrifugation was added 80 μL of D-PBS containing 0.5% bovine serum albumin (BSA; Sigma-Aldrich), and the cells were sufficiently suspended therein. Anti-Fibroblast Microbeads (Militenyi Biotec, 20 μL) was added thereto, and the mixture was left standing at room temperature for 30 min. After completion of the reaction with an antibody, 2 mL of D-PBS containing 0.5% BSA was added thereto, and the mixture was centrifuged again at room temperature, 1,500 rpm for 5 min. To the cell layers containing the object cells obtained by the centrifugation was added 1 mL of D-PBS containing 0.5% BSA, and the cells were sufficiently suspended therein. The suspension was added dropwise to LD column (Militenyi Biotec) equilibrated in advance with a column washing solution (D-PBS containing 2 mM EDTA (DOJINDO LABORATORIES) and 0.5% BSA). Then, 2 mL of the column washing solution was added dropwise to the LD column. […] The cells collected in the centrifuge tube were centrifuged at room temperature, 1,500 rpm for 5 min, and the supernatant was removed. The sediment was suspended in Defined Keratinocyte Serum Free Medium (5 mL), centrifuged at room temperature, 1,500 rpm for 5 min, and removed the supernatant. Again, the residue was suspended in DK-SFM (3 mL), centrifuged at room temperature and 1,500 rpm for 5 min, and the supernatant was removed. The cells were suspended in DK-SFM (2 mL), and seeded on a 6 well multi-well plate for cell culture, which had been treated with collagen. The seeded cells were cultured in Defined keratinocyte-Serum Free Medium (DK-SFM; Invitrogen, attached Supplement was added as instructed in the preparation protocol), cultured in an incubator (SANYO) set to 37° C., 5% CO2, 95% air, 100% humidity, and the culture medium was exchanged with a new one every 48 hr until the cells became subconfluent.
As a test substance, compound A, [4-[3-[2-(4-trifluoromethyl)phenyl-4-isopropyl-5-thiazolyl]propionyl]-2-methylphenoxy]acetic acid (hereinafter to be referred to as compound B) or [4-[3-[2-(2-hydroxy-4-chlorophenyl)-5-isopropyl-4-oxazolyl]propionyl]-2-methylphenoxy]acetic acid (hereinafter to be referred to as compound C) was used. […]
(Formazan colour is commonly taken as a measure of viable cells.)

On to `Cc1cc2c(CCc3sc(-c4ccc(C(F)(F)F)cc4)nc3C(C)C)noc2cc1OCC(=O)O` [compound A, [3-[2-[4-isopropyl-2-(4-trifluoromethyl)phenyl-5-thiazolyl]ethyl]-5-methyl-1,2-benzisoxazol-6-yl]oxyacetic acid], for which the “cell number increase ratio” value is 189.8 ± 13.1% (10^−6 M), 177.1 ± 9.7% (10^−7 M) and 175.3 ± 9.0% (10^−8 M).
